Laboratory results published in patent publication US9624211B2, “Anti-cancer compounds” (Board of Regents, The University of Texas System, priority 2013, dated 2017).

Experiments:
[1] = tested on: p27 and p21 protein expression; assay: Immunoblotting of SCF substrates in prostate cancer cells; format: cell-based
Excerpt: Cells were lysed with RIPA buffer in the presence of protease inhibitor cocktail (Roche). The following antibodies were used for immunoblotting analysis: anti-Skp2 (Invitrogen), anti-Xpress (Invitrogen), anti-p27 (BD transduction laboratories), anti-p21 (Santa Cruz), anti-β-actin (Sigma), anti-α-tubulin (Sigma), anti-phospho-Akt (Thr308) (Cell Signaling), anti-phospho-Akt (Ser473) (Cell Signaling), and anti-HA (Convance). For immunohistochemistry, tissues were fixed in 10% formalin and embedded in paraffin in accordance with standard procedures. Sections were stained with anti-Skp2 (Invitrogen), anti-p27 (Epitomics), anti-phosphoAkt (SerS473) (Cell signaling), anti-Glut1 (Abcam), and anti-Ki67 (Abcam). TUNEL staining was performed by using in situ cell death detection kit-POD (Roche).

FBW7 = molecular target: T1, FBW7 (Homo sapiens, UniProt Q969H0); assay: In vivo ubiquitination assay, FBW7 substrates; format: cell-based; conditions: in the presence of proteasome inhibitor
T1 construct: expressed in transfected cells; host or cells: 293T
Description: In vivo and in vitro ubiquitination assays were performed as described with modification (Lin et al., 2009; Yang et al., 2009). For in vitro ubiquitination assay, recombinant GST-Akt proteins were expressed, purified and eluted from the bacterial lysates of BL21 competent cells. Flag-Skp2 SCF complex were expressed in 293T cells, immunoprecipitated by anti-Flag antibody, and eluted from Protein A/G beads using Flag peptides according to manufacturers' standard procedures. Purified GST-Akt and Flag-SCF proteins were incubated for 3 h at 37° C. in the absence and presence of Skp2 inhibitor. After incubation, protein mixtures were diluted in E1A Buffer and the supernatant fluid was precleared with Protein A/G beads for 1 h, and immunoprecipitated overnight with anti-Flag antibody, after which Protein A/G beads were added for an additional 1 h. Beads were washed 4 times with E1A Buffer. Proteins were eluted in SDS-sample buffer and subjected to immunoblotting analysis. For in vivo ubiquitination assay, 293T cells were transfected with the indicated plasmids and cultured in the absence or presence of Skp2 inhibitor for 48 h. 6 h before harvest, cells were cultured in the presence of MG132. After cell harvest, cells were lysed by the denatured buffer (6M guanidine-HCl, 0.1M Na2HPO4/NaH2PO4, 10 mM imidazole). […]

[2] = molecular target: T2, Skp1/Skp2 binding interaction (Homo sapiens, UniProt Q13309); assay: In vitro Skp2-Skp1 binding assay (GST pull-down); conditions: amount of intact Skp1/Skp2 remaining after treatment, quantified on western blot/images
T2 construct: made in house; host or cells: GST-Skp1: E. coli BL21; Skp2: in vitro translation
Description: For in vitro GST-Skp1 and Skp2 interaction, GST-Skp1 proteins purified from the bacterial lysates of BL21 competent cells transformed with pGEX-4X1-Skp1 using the Glutathione-Agarose beads according to the manufacturer's standard procedures. The GST-Skp1 proteins bound to glutathione Sepharose beads (Amersham Biosciences) were then incubated with the in vitro translated [35^S]-Skp2 for 2 hours at 4° C. in the interaction buffer with or without compound #25 (20 mM HEPES, PH 7.9, 150 mM KCl. 5 mM EDTA, 0.5 mM DTT, 0.1% (v/v) Nonidet p-40, 0.1% (w/v) BSA, 1 mM PMSF, and 10% Glycerol), washed by the NETN buffer (20 mM Tris, pH 8.0, 100 mM NaCl, 6 mM MgCl2, 1 mM EDTA, 0.5% Nonidet P-40, 1 mM DTT, 8% glycerol, 1 mM PMSF) 4 times, and subjected to 8% SDS-PAGE, followed by autoradiography.
Below are the original lead compound and 11 similar compounds that were tested for their ability to block the Skp1/Skp2 binding interaction in an in vitro assay. The quantification was made on western blot/images, and the percentages represent the amount of intact Skp1/Skp2 remaining after treatment. In vitro binding assays were performed. For in vitro GST-Skp1 and Skp2 interaction, GST-Skp1 proteins purified from the bacterial lysates of BL21 competent cells transformed with pGEX-4X1-Skp1 using the Glutathione-Agarose beads were performed according to the manufacturer's standard procedures. The GST-Skp1 proteins bound to glutathione Sepharose beads (Amersham Biosciences) were then incubated with the in vitro translated [35^S]-Skp2 for 2 hours at 4° C. in the interaction buffer with or without lead compound and 11 similar compounds (20 mM HEPES, PH 7.9, 150 mM KCl. 5 mM EDTA, 0.5 mM DTT, 0.1% (v/v) Nonidet p-40, 0.1% (w/v) BSA, 1 mM PMSF, and 10% Glycerol), washed by the NETN buffer (20 mM Tris, pH 8.0, 100 mM NaCl, 6 mM MgCl2, 1 mM EDTA, 0.5% Nonidet P-40, 1 mM DTT, 8% glycerol, 1 mM PMSF) 4 times, and subjected to 8% SDS-PAGE, followed by autoradiography. The data presented in Table 1 below was obtained using the Skp1/Skp2 binding affinity assay. The quantification percentage results listed below are based on the western blot results.

T2 sequence (Q13309 whole entry): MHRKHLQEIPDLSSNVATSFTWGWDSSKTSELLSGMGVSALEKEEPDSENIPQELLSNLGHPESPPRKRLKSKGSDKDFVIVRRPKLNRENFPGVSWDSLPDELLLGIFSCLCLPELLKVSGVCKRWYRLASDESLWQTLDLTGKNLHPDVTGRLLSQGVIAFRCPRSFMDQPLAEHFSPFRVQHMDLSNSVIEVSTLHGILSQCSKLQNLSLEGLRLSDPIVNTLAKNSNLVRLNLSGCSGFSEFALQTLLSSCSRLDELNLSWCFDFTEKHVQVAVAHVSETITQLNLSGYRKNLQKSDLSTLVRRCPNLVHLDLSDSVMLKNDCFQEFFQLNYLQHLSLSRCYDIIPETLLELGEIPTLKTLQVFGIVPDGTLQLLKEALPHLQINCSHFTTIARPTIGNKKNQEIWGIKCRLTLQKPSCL
T1 sequence (Q969H0 whole entry, species assumed): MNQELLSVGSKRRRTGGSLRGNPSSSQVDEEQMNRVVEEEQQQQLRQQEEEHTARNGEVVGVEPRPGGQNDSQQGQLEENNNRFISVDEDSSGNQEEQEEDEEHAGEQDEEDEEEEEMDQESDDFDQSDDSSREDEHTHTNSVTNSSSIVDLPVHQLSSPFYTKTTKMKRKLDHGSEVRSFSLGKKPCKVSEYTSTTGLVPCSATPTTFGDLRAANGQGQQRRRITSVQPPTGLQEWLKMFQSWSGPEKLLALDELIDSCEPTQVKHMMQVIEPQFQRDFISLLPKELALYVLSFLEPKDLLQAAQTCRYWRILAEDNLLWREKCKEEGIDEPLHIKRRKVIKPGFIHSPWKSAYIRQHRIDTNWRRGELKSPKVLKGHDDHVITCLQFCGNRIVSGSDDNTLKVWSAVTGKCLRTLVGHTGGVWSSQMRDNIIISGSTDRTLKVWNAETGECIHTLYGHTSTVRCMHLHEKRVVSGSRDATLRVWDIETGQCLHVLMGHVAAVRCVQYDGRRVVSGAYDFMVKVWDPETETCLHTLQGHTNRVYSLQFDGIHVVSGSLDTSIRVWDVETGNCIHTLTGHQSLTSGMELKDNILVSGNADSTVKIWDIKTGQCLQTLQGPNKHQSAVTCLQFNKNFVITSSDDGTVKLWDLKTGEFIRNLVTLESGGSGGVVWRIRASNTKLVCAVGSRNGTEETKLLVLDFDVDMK

| Normalized w/ vehicle treatment [2] | Structure (SMILES) | further results |
| --- | --- | --- |
|  | NS(=O)(=O)OC[C@@H]1C[C@@H](n2ccc3c(N[C@H]4CCc5ccccc54)ncnc32)C[C@@H]1O [MLN4924, reference compound] | heat shock protein 27 (Hsp27) expression ([1]; LNCaP prostate cancer cells): induced expression; stabilization/induction of SCF substrates ([1]; Skp2, Fbw7 and β-TrCP substrates, FIGS. 3E and 11A): globally induced; FBW7-mediated ubiquitination (c-Jun, MCL-1) (FBW7): profoundly attenuated |
| 35% | Cn1c(-c2cc3ccc(O)c(CN4CCCC4)c3oc2=O)nc2ccccc21 [compound 343] |  |
| 10% | CCc1cc2c(=O)c(-c3nc4ccccc4s3)coc2c(CN2CCOCC2)c1O [compound 354] |  |
| 100% (no effect) | CCc1cc2c(=O)c(-c3nc4ccccc4s3)coc2cc1O [compound 378] |  |
| 40% | Cn1c(-c2cc3ccc(O)c(CN4CCCCC4)c3oc2=O)nc2ccccc21 [compound 435] |  |
| 8% | Cn1c(-c2cc3ccc(O)c(CN4CCCCCC4)c3oc2=O)nc2ccccc21 [compound 580] |  |
| 8% | Nc1oc2cc(O)ccc2c(=O)c1-c1nc2ccccc2s1 [compound 649] |  |
| 8% | CCc1cc2c(=O)c(-c3nc4ccccc4s3)coc2c(CN(C)C)c1O [compound 653] |  |
| 75% | O=c1c(-c2nc3ccccc3s2)coc2cc(O)ccc12 [compound 684] |  |
| 80% | O=c1oc2c(CN(CCO)CCO)c(O)ccc2cc1-c1nc2ccccc2s1 [compound 719] |  |
| 10% | CN(C)Cc1c(O)ccc2cc(-c3nc4ccccc4o3)c(=O)oc12 [compound 820] |  |
| 8% | COc1ccccc1C(=O)Oc1ccc2c(=O)c(-c3nc4ccccc4s3)coc2c1 [compound 837] |  |
